Earlier results on one compound are cited in patent US10696827B2, “Polyolefin composition comprising an antimicrobial additive” (SABIC GLOBAL TECHNOLOGIES B.V., priority 2015, dated 2020).

The structures appear in SMILES notation.

This data set has as its system Staphylococcus aureus. The following applies: >0.4% of additive in LDPE catheter, rabbits, subcutaneous.

Take `CCCCCCc1ccc(O)cc1O` [4-n-hexyl resorcinol]: the infection entry is “little to no infection”.
